Source: US10941157B2, “Pesticidal compositions and uses thereof” (Gilead Apollo, LLC, priority 2015, dated 2021)
≈ marks a conversion by molar mass, not a printed value.

Key:
Botrtyis cinerea (Bc) = experiment: In vitro pathogen growth inhibition assay, Bc; assay type: cell-based; settings: 48 h, ≥90% growth inhibition; 48 hours; vs 2% DMSO control; read-out: Compound Concentration (ppm) sufficient for ≥90% inhibition of Bc
Summary of the method: (§1)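 Value reported is the compound concentration reaching ≥90% growth inhibition, from OD readings at 24 and 48 h after blank subtraction, confirmed visually. Inoculum was spores diluted in 17% V8 medium, except Rs, using 1.5 mm mycelial plugs in ¼ PDB; actual compound concentration corrected via OD600.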

[1] = test system: Collectotrichum graminicola (Cg); experiment: In vitro pathogen growth inhibition assay, Cg; assay type: cell-based; settings: 48 h, ≥90% growth inhibition; 48 hours; vs 2% DMSO control; read-out: Compound Concentration (ppm) sufficient for ≥90% inhibition of Cg
Summary of the method: as §1

Diplodia maydis (Dm) = experiment: In vitro pathogen growth inhibition assay, Dm; assay type: cell-based; settings: Stenocarpella maydis, 48 h, ≥90% growth inhibition; 48 hours; vs 2% DMSO control; read-out: Compound Concentration (ppm) sufficient for ≥90% inhibition of Dm
Summary of the method: (§2)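 Spores of Dm, Fv and Pc were diluted in 17% V8 liquid medium; Rs used 1.5 mm mycelial plugs in ¼ PDB. Compounds from 2.5 mg/ml DMSO stocks were combined with inoculum, growth was read by OD600 at 24 and 48 h with blank subtraction, and the reported value is the concentration giving ≥90% inhibition.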

[2] = test system: Fusarium moniliforme (Fm); experiment: In vitro pathogen growth inhibition assay, Fm; assay type: cell-based; settings: Fusarium verticillioides; ≥90% growth inhibition; 48 hours; vs 2% DMSO control; read-out: Compound Concentration (ppm) sufficient for ≥90% inhibition of Fm
Summary of the method: as §1

[3] = test system: Fusarium virguliforme (Fv); experiment: In vitro pathogen growth inhibition assay, Fv; assay type: cell-based; settings: ≥90% growth inhibition, 48 hours, vs 2% DMSO control, read-out: Compound Concentration (ppm) sufficient for ≥90% inhibition of Fv
Summary of the method: as §2

[4] = test system: Phytophthora capsici (Pc); experiment: In vitro pathogen growth inhibition assay, Pc; assay type: cell-based; settings: 48 h, ≥90% growth inhibition, 48 hours, vs 2% DMSO control, read-out: Compound Concentration (ppm) sufficient for ≥90% inhibition of Pc
Summary of the method: as §2

Rhizoctonia solani (Rs) = experiment: In vitro pathogen growth inhibition assay, Rs (mycelial plugs); assay type: cell-based; settings: Rhizoctonia solani, 48 h, ≥90% growth inhibition; mycelial plugs; 48 hours; vs 2% DMSO control; read-out: Compound Concentration (ppm) sufficient for ≥90% inhibition of Rs
Summary of the method: as §2

Septoria tritici (St) = experiment: In vitro pathogen growth inhibition assay, St; assay type: cell-based; settings: Zymoseptoria tritici, 48 h, ≥90% growth inhibition; 48 hours; vs 2% DMSO control; read-out: Compound Concentration (ppm) sufficient for ≥90% inhibition of St
Summary of the method: as §1

[5] = test system: Blumeria graminis f. sp. hordei; experiment: Foliar protection test for barley powdery mildew control; assay type: in vivo; settings: foliar spray on Hordeum vulgare cv. Perry, inoculated 24 hours after treatment, evaluated 7 days later
Summary of the method: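 Protective foliar test: compound atomized onto both leaf surfaces of 6-day-old Hordeum vulgare cv. Perry, followed after 24 h by spore-cloud inoculation from colonized untreated plants. Disease rated on leaves 7 days on, plants held at 20 to 22° C and 70% RH.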

Sphaerotheca fuliginea = experiment: Foliar protection for cucumber powdery mildew control; assay type: in vivo; settings: foliar spray on Cucumis sativus cv. Straight Eight, inoculated 24 hours after treatment, evaluated 7 days later
Summary of the method: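 Protective foliar spray on 10-day-old Straight Eight cucumbers, with S. fuliginea spores dusted from infected stock plants 24 h after treatment. Disease developed at 23–27 °C, 60% RH and a 16 h photoperiod. Leaves were rated for mildew growth after 7 days; test rates 10 ppm or below.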

[6] = test system: Mycosphaerella graminicola (synthetic Septoria tritici); experiment: Foliar protection test for wheat septoria leaf blotch control; assay type: in vivo; settings: foliar spray on Triticum aestivum cv. WinterHawk, inoculated 1 hour after treatment, evaluated 16 days later
Fusarium graminearum = assay type: in vivo; settings: spray on flowering Triticum aestivum cv. Samson, inoculated 24 hours after treatment, evaluated 14 days later
Puccinia triticina = experiment: Foliar protection test for wheat leaf rust control; assay type: in vivo; settings: foliar application to wheat (Triticum aestivum cv. Winterhawk), evaluated 10 days later
Phakopsora pachyrhizi = experiment: Foliar protection test for Asian soybean rust control; assay type: in vivo; settings: foliar application to soybean (Glycine max AG4832), percent disease area evaluated 14 days later

| SMILES | IC90 (Botrtyis cinerea (Bc)) [µg/mL] | IC90 [1] [µg/mL] | IC90 (Diplodia maydis (Dm)) [µg/mL] | IC90 [2] [µg/mL] | IC90 [3] [µg/mL] | IC90 [4] [µg/mL] | IC90 (Rhizoctonia solani (Rs)) [µg/mL] | IC90 (Septoria tritici (St)) [µg/mL] | Barley Powdery Mildew Control at a compound concentration of 10 ppm or lower [5] | Cucumber Powdery Mildew Control at a compound concentration of 10 ppm or lower (Sphaerotheca fuliginea) | Septoria Leaf Blotch Control at a compound concentration of 25 ppm or lower [6] | Wheat Fusarium Head Blight Control at a compound concentration of 25 ppm or lower (Fusarium graminearum) | Wheat Leaf Rust Control at a compound concentration of 10 ppm or lower (Puccinia triticina) | Asian Soybean Rust Control at a compound concentration of 25 ppm or lower (Phakopsora pachyrhizi) |
| --- | --- | --- | --- | --- | --- | --- | --- | --- | --- | --- | --- | --- | --- | --- |
| CCOC(=O)c1sc2c(c1C)c(=O)n(C(C)(C)C(=O)NC(C)C)c(=O)n2C[C@H](OCC#N)c1cc(F)ccc1OC [Compound I-251, (R)-ethyl-1-(2-(cyanomethoxy)-2-(5-fluoro-2-methoxyphenyl)ethyl)-3-(1-(isopropylamino)-2-methyl-1-oxopropan-2-yl)-5-methyl-2,4-dioxo-1,2,3,4-tetrahydrothieno[2,3-d]pyrimidine-6-carboxylate] | 0.4 (≈ 0.68 µM) | 2 (≈ 3.4 µM) | 2 (≈ 3.4 µM) | 0.08 (≈ 0.136 µM) | 0.4 (≈ 0.68 µM) | > 50 | 0.4 (≈ 0.68 µM) | > 10 | AA (≥85% control of barley powdery mildew) | AA (≥85% control of cucumber powdery mildew) | C (from 25 to 49% control of wheat septoria leaf blotch) | C (from 25 to 49% control of wheat fusarium head blight) | D (<25% control of wheat leaf rust) | C (from 25 to 49% control of Asian soybean rust) |
| COc1ccc(F)cc1[C@H](Cn1c(=O)n(C(C)(C)C(=O)NC(C)C)c(=O)c2c(C)c(-n3nccn3)sc21)OCC(C)(C)C#N [Compound I-213, (R)-2-(1-(2-(2-cyano-2-methylpropoxy)-2-(5-fluoro-2-methoxyphenyl)ethyl)-5-methyl-2,4-dioxo-6-(2H-1,2,3-triazol-2-yl)-1,4-dihydrothieno[2,3-d]pyrimidin-3 (2H)-yl)-N-isopropyl-2-methylpropanamide] | 0.4 (≈ 0.639 µM) | 0.4 (≈ 0.639 µM) | ≥ 0.08 | 0.08 (≈ 0.128 µM) | 0.4 (≈ 0.639 µM) | > 50 | 0.08 (≈ 0.128 µM) | > 50 | A (from 70% to 84% control of barley powdery mildew) | AA (≥85% control of cucumber powdery mildew) | AA (≥85% control of wheat septoria leaf blotch) | B (from 50 to 69% control of wheat fusarium head blight) | B (from 50 to 69% control of wheat leaf rust) | B (from 50 to 69% control of Asian soybean rust) |
| COc1ccc(F)cc1[C@H](Cn1c(=O)n(C(C)(C)C(=O)NC(C)C)c(=O)c2c(C)c(-n3nccn3)sc21)OC[C@H](C)C#N [Compound I-212, 2-(1-((R)-2-((R)-2-cyanopropoxy)-2-(5-fluoro-2-methoxyphenyl)ethyl)-5-methyl-2,4-dioxo-6-(2H-1,2,3-triazol-2-yl)-1,4-dihydrothieno[2,3-d]pyrimidin-3 (2H)-yl)-N-isopropyl-2-methylpropanamide] | 0.4 (≈ 0.654 µM) | 0.08 (≈ 0.131 µM) | ≥ 0.08 | 0.08 (≈ 0.131 µM) | 0.4 (≈ 0.654 µM) | > 50 | 0.08 (≈ 0.131 µM) | > 50 | AA (≥85% control of barley powdery mildew) | AA (≥85% control of cucumber powdery mildew) | AA (≥85% control of wheat septoria leaf blotch) | B (from 50 to 69% control of wheat fusarium head blight) | AA (≥85% control of wheat leaf rust) | AA (≥85% control of Asian soybean rust) |
| COc1ccc(F)cc1[C@H](Cn1c(=O)n(C(C)(C)C(=O)NC(C)C)c(=O)c2c(C)c(-n3cccn3)sc21)OC[C@H](C)C#N [Compound I-263, 2-(1-((R)-2-((R)-2-cyanopropoxy)-2-(5-fluoro-2-methoxyphenyl)ethyl)-5-methyl-2,4-dioxo-6-(1H-pyrazol-1-yl)-1,4-dihydrothieno[2,3-d]pyrimidin-3 (2H)-yl)-N-isopropyl-2-methylpropanamide] | 0.4 (≈ 0.655 µM) | 0.4 (≈ 0.655 µM) | 2 (≈ 3.27 µM) | ≥ 0.08 | 0.4 (≈ 0.655 µM) | ≥ 50 | 0.4 (≈ 0.655 µM) | > 10 | A (from 70% to 84% control of barley powdery mildew) | AA (≥85% control of cucumber powdery mildew) | D (<25% control of wheat septoria leaf blotch) | B (from 50 to 69% control of wheat fusarium head blight) | AA (≥85% control of wheat leaf rust) | AA (≥85% control of Asian soybean rust) |
| COc1ccc(F)cc1[C@@](C)(Cn1c(=O)n(C(C)(C)C(=O)NC(C)C)c(=O)c2c(C)c(-n3nccn3)sc21)OCCC#N [Compound I-274, (S)-2-(1-(2-(2-cyanoethoxy)-2-(5-fluoro-2-methoxyphenyl)propyl)-5-methyl-2,4-dioxo-6-(2H-1,2,3-triazol-2-yl)-1,4-dihydrothieno[2,3-d]pyrimidin-3 (2H)-yl)-N-isopropyl-2-methylpropanamide] | 0.4 (≈ 0.654 µM) | 0.08 (≈ 0.131 µM) | 0.4 (≈ 0.654 µM) | 0.08 (≈ 0.131 µM) | 0.4 (≈ 0.654 µM) | 2 (≈ 3.27 µM) | 0.08 (≈ 0.131 µM) | > 50 | AA (≥85% control of barley powdery mildew) | AA (≥85% control of cucumber powdery mildew) | AA (≥85% control of wheat septoria leaf blotch) | C (from 25 to 49% control of wheat fusarium head blight) | AA (≥85% control of wheat leaf rust) | A (from 70% to 84% control of Asian soybean rust) |
| COc1ccccc1[C@H](Cn1c(=O)n([C@@H](C)C(=O)N(C)C(C)C)c(=O)c2c(C)c(-n3nccn3)sc21)OCCC#N [Compound I-239, (S)-2-(1-((R)-2-(2-cyanoethoxy)-2-(2-methoxyphenyl)ethyl)-5-methyl-2,4-dioxo-6-(2H-1,2,3-triazol-2-yl)-1,4-dihydrothieno[2,3-d]pyrimidin-3 (2H)-yl)-N-isopropyl-N-methylpropanamide] | 2 (≈ 3.45 µM) | 2 (≈ 3.45 µM) | 2 (≈ 3.45 µM) | 0.08 (≈ 0.138 µM) | 0.08 (≈ 0.138 µM) | ≥ 10 | 0.08 (≈ 0.138 µM) | ≥ 10 | AA (≥85% control of barley powdery mildew) | AA (≥85% control of cucumber powdery mildew) | D (<25% control of wheat septoria leaf blotch) | C (from 25 to 49% control of wheat fusarium head blight) | AA (≥85% control of wheat leaf rust) | AA (≥85% control of Asian soybean rust) |
